# Values of other authors in US20070185035A1, “ENHANCED MUCOSAL ADMINISTRATION OF NEUROPROTECTIVE PEPTIDES” (Nastech Pharmaceutical Company Inc., priority 2005, published 2007).
# Like-named read-outs stand apart in the source and are kept apart here.
# Columns and labels:
# ciliary motility = conditions: without obvious ultrastructural lesions
# [1] = anesthetized rats
compound,measurement,setting,value
2-alkyl-4-hydroxyquinolines [pyo compound],concentration producing ciliostasis,ciliary motility,50 µg/mL
CC(C)CC(N)B(O)O (centres unmarked) [boro-leucine],effectiveness in enzyme inhibition relative to bestatin,aminopeptidases,more than 100 times
same,effectiveness in enzyme inhibition relative to puromycin,aminopeptidases,more than 1000 times
human growth hormone: human growth hormone given nasally to rats with or without N-acetyl-L-cysteine,nasal bioavailability,[1]; with N-acetyl-L-cysteine (ACS),12.2%
same,nasal bioavailability,[1]; without N-acetyl-L-cysteine,7.5%
